The record followed here is ChEMBL document CHEMBL4229518, “New β-lactam - Tetramic acid hybrids show promising antibacterial activities” (Bioorg Med Chem Lett, 2018).

Converted amounts (≈) assume the structure as drawn.

For one assay, the system named is Bacillus subtilis. Nature of the assay: Antimicrobial activity against Bacillus subtilis ATCC 23857 after 18 to 20 hrs by microbroth dilution method. The format is functional.
Conditions: not given
For the compound `CC1=C(C(=O)O)N2C(=O)[C@@H](NC(=O)[C@H](NC(=O)CCNC(=O)C3=C(O)C(CC(C)C)NC3=O)c3ccccc3)[C@H]2SC1` (some centres not stated), inhibition of growth (MIC) required 6.25 µg/mL (≈ 10.4 µM).
The compound `CC(C)CC1NC(=O)C(C(=O)NCCC(=O)N[C@@H](C(=O)N[C@@H]2C(=O)N3[C@@H]2SC(C)(C)[C@@H]3C(=O)O)c2ccccc2)=C1O` (some centres not stated) came in with an MIC of 3.13 µg/mL (≈ 5.2 µM).

The next assay concerns Enterobacter cloacae. The assay is described as follows: Antimicrobial activity against Enterobacter cloacae ATCC 13047 after 18 to 20 hrs by microbroth dilution method. The conditions noted are these: subsp. cloacae ATCC 13047. Type of assay: functional.
As to `CC1=C(C(=O)O)N2C(=O)[C@@H](NC(=O)[C@H](NC(=O)CCNC(=O)C3=C(O)C(CC(C)C)NC3=O)c3ccccc3)[C@H]2SC1` (some centres not stated), the MIC was over 200 µg/mL.
On the same count and under the same terms, for `CC(C)CC1NC(=O)C(C(=O)NCCC(=O)N[C@@H](C(=O)N[C@@H]2C(=O)N3[C@@H]2SC(C)(C)[C@@H]3C(=O)O)c2ccccc2)=C1O` (some centres not stated) the value was over 200 µg/mL.

The subject of a further assay is Proteus mirabilis. The assay is described as follows: Antimicrobial activity against Proteus mirabilis ATCC 25933 after 18 to 20 hrs by microbroth dilution method. Type of assay: functional.
Conditions: not given
Take `CC1=C(C(=O)O)N2C(=O)[C@@H](NC(=O)[C@H](NC(=O)CCNC(=O)C3=C(O)C(CC(C)C)NC3=O)c3ccccc3)[C@H]2SC1` (some centres not stated): the MIC is 50 µg/mL (≈ 83.4 µM).
Regarding `CC(C)CC1NC(=O)C(C(=O)NCCC(=O)N[C@@H](C(=O)N[C@@H]2C(=O)N3[C@@H]2SC(C)(C)[C@@H]3C(=O)O)c2ccccc2)=C1O` (some centres not stated), the MIC worked out at 6.25 µg/mL (≈ 10.4 µM).

The next assay deals with Streptococcus pyogenes. Nature of the assay: Antimicrobial activity against Streptococcus pyogenes ATCC 700294 after 18 to 20 hrs by microbroth dilution method. Type of assay: functional. The conditions noted are these: M1 GAS.
In turn, `CC1=C(C(=O)O)N2C(=O)[C@@H](NC(=O)[C@H](NC(=O)CCNC(=O)C3=C(O)C(CC(C)C)NC3=O)c3ccccc3)[C@H]2SC1` (some centres not stated) had a minimal inhibitory concentration (MIC) of 12.5 µg/mL (≈ 20.8 µM).
Compound `CC(C)CC1NC(=O)C(C(=O)NCCC(=O)N[C@@H](C(=O)N[C@@H]2C(=O)N3[C@@H]2SC(C)(C)[C@@H]3C(=O)O)c2ccccc2)=C1O` (some centres not stated) displayed a minimal inhibitory concentration (MIC) of 0.78 µg/mL (≈ 1.3 µM).

Another assay relates to Klebsiella pneumoniae. The assay is described as follows: Antimicrobial activity against Klebsiella pneumoniae ATCC 33495 after 18 to 20 hrs by microbroth dilution method. The format is functional.
Conditions: not given
As for `CC1=C(C(=O)O)N2C(=O)[C@@H](NC(=O)[C@H](NC(=O)CCNC(=O)C3=C(O)C(CC(C)C)NC3=O)c3ccccc3)[C@H]2SC1` (some centres not stated), the minimum inhibitory concentration (MIC) stood at 200 µg/mL (≈ 334 µM).
`CC(C)CC1NC(=O)C(C(=O)NCCC(=O)N[C@@H](C(=O)N[C@@H]2C(=O)N3[C@@H]2SC(C)(C)[C@@H]3C(=O)O)c2ccccc2)=C1O` (some centres not stated): inhibition of growth (MIC) required 200 µg/mL (≈ 332 µM).

The subject of a further assay is Bacillus cereus. Nature of the assay: Antimicrobial activity against Bacillus cereus ATCC 14579 after 18 to 20 hrs by microbroth dilution method. Type of assay: functional.
Conditions: not given
Take `CC1=C(C(=O)O)N2C(=O)[C@@H](NC(=O)[C@H](NC(=O)CCNC(=O)C3=C(O)C(CC(C)C)NC3=O)c3ccccc3)[C@H]2SC1` (some centres not stated): the minimal inhibitory concentration (MIC) was over 200 µg/mL.
The compound `CC(C)CC1NC(=O)C(C(=O)NCCC(=O)N[C@@H](C(=O)N[C@@H]2C(=O)N3[C@@H]2SC(C)(C)[C@@H]3C(=O)O)c2ccccc2)=C1O` (some centres not stated) came in with an MIC of 25 µg/mL (≈ 41.6 µM).

For another assay, the system named is Enterococcus faecalis. Nature of the assay: Antimicrobial activity against Enterococcus faecalis ATCC 33186 after 18 to 20 hrs by microbroth dilution method. Type of assay: functional.
Conditions: not given
For the compound `CC1=C(C(=O)O)N2C(=O)[C@@H](NC(=O)[C@H](NC(=O)CCNC(=O)C3=C(O)C(CC(C)C)NC3=O)c3ccccc3)[C@H]2SC1` (some centres not stated), the minimum inhibitory concentration (MIC) is over 200 µg/mL.
`CC(C)CC1NC(=O)C(C(=O)NCCC(=O)N[C@@H](C(=O)N[C@@H]2C(=O)N3[C@@H]2SC(C)(C)[C@@H]3C(=O)O)c2ccccc2)=C1O` (some centres not stated) returned a minimum inhibitory concentration (MIC) of 50 µg/mL (≈ 83.1 µM).

For another assay, the system named is Escherichia coli. The assay is described as follows: Antimicrobial activity against tolC deficient Escherichia coli JW5503-1 after 18 to 20 hrs by microbroth dilution method. Type of assay: functional.
Conditions: not given
In turn, `CC1=C(C(=O)O)N2C(=O)[C@@H](NC(=O)[C@H](NC(=O)CCNC(=O)C3=C(O)C(CC(C)C)NC3=O)c3ccccc3)[C@H]2SC1` (some centres not stated) registered an MIC of 200 µg/mL (≈ 334 µM).
The compound `CC(C)CC1NC(=O)C(C(=O)NCCC(=O)N[C@@H](C(=O)N[C@@H]2C(=O)N3[C@@H]2SC(C)(C)[C@@H]3C(=O)O)c2ccccc2)=C1O` (some centres not stated) returned an MIC of 25 µg/mL (≈ 41.6 µM).

Another assay deals with Acinetobacter baumannii. Nature of the assay: Antimicrobial activity against Acinetobacter baumannii ATCC 19606 after 18 to 20 hrs by microbroth dilution method. The conditions noted are these: ATCC 19606 = CIP 70.34 = JCM 6841. Type of assay: functional.
In turn, `CC1=C(C(=O)O)N2C(=O)[C@@H](NC(=O)[C@H](NC(=O)CCNC(=O)C3=C(O)C(CC(C)C)NC3=O)c3ccccc3)[C@H]2SC1` (some centres not stated) showed a minimal inhibitory concentration (MIC) of over 200 µg/mL.
For `CC(C)CC1NC(=O)C(C(=O)NCCC(=O)N[C@@H](C(=O)N[C@@H]2C(=O)N3[C@@H]2SC(C)(C)[C@@H]3C(=O)O)c2ccccc2)=C1O` (some centres not stated), the MIC was found to be 200 µg/mL (≈ 332 µM).

A further assay relates to Streptococcus pneumoniae. Nature of the assay: Antimicrobial activity against Streptococcus pneumoniae R6 after 18 to 20 hrs by microbroth dilution method. The format is functional.
Conditions: not given
`CC1=C(C(=O)O)N2C(=O)[C@@H](NC(=O)[C@H](NC(=O)CCNC(=O)C3=C(O)C(CC(C)C)NC3=O)c3ccccc3)[C@H]2SC1` (some centres not stated) yielded an MIC of 12.5 µg/mL (≈ 20.8 µM).
Compound `CC(C)CC1NC(=O)C(C(=O)NCCC(=O)N[C@@H](C(=O)N[C@@H]2C(=O)N3[C@@H]2SC(C)(C)[C@@H]3C(=O)O)c2ccccc2)=C1O` (some centres not stated) gave an MIC of under 0.2 µg/mL.

The next assay has as its system Staphylococcus aureus. Nature of the assay: Antimicrobial activity against methicillin-susceptible Staphylococcus aureus NRS70 after 18 to 20 hrs by microbroth dilution method. Type of assay: functional.
Conditions: not given
Take `CC1=C(C(=O)O)N2C(=O)[C@@H](NC(=O)[C@H](NC(=O)CCNC(=O)C3=C(O)C(CC(C)C)NC3=O)c3ccccc3)[C@H]2SC1` (some centres not stated): the MIC was 50 µg/mL (≈ 83.4 µM).
`CC(C)CC1NC(=O)C(C(=O)NCCC(=O)N[C@@H](C(=O)N[C@@H]2C(=O)N3[C@@H]2SC(C)(C)[C@@H]3C(=O)O)c2ccccc2)=C1O` (some centres not stated) returned a minimum inhibitory concentration (MIC) of 50 µg/mL (≈ 83.1 µM).

The test system of the next assay is Bacillus anthracis. Nature of the assay: Antimicrobial activity against Bacillus anthracis Sterne 34F2 after 18 to 20 hrs by microbroth dilution method.
Conditions: not given
Type of assay: functional.
For the compound `CC1=C(C(=O)O)N2C(=O)[C@@H](NC(=O)[C@H](NC(=O)CCNC(=O)C3=C(O)C(CC(C)C)NC3=O)c3ccccc3)[C@H]2SC1` (some centres not stated), the MIC came to 100 µg/mL (≈ 167 µM).
Compound `CC(C)CC1NC(=O)C(C(=O)NCCC(=O)N[C@@H](C(=O)N[C@@H]2C(=O)N3[C@@H]2SC(C)(C)[C@@H]3C(=O)O)c2ccccc2)=C1O` (some centres not stated) registered a minimum inhibitory concentration (MIC) of 3.13 µg/mL (≈ 5.2 µM).

The test system of the next assay is Escherichia coli. Nature of the assay: Antimicrobial activity against Escherichia coli BW25113 after 18 to 20 hrs by microbroth dilution method. The format is functional.
Conditions: not given
`CC1=C(C(=O)O)N2C(=O)[C@@H](NC(=O)[C@H](NC(=O)CCNC(=O)C3=C(O)C(CC(C)C)NC3=O)c3ccccc3)[C@H]2SC1` (some centres not stated): the MIC came out at 200 µg/mL (≈ 334 µM).
With `CC(C)CC1NC(=O)C(C(=O)NCCC(=O)N[C@@H](C(=O)N[C@@H]2C(=O)N3[C@@H]2SC(C)(C)[C@@H]3C(=O)O)c2ccccc2)=C1O` (some centres not stated), the minimal inhibitory concentration (MIC) is 50 µg/mL (≈ 83.1 µM).

For another assay, the system named is Staphylococcus aureus. Nature of the assay: Antimicrobial activity against methicillin-susceptible Staphylococcus aureus ATCC 29213 after 18 to 20 hrs by microbroth dilution method. Type of assay: functional.
Conditions: not given
In the case of `CC1=C(C(=O)O)N2C(=O)[C@@H](NC(=O)[C@H](NC(=O)CCNC(=O)C3=C(O)C(CC(C)C)NC3=O)c3ccccc3)[C@H]2SC1` (some centres not stated), the MIC came to 3.13 µg/mL (≈ 5.22 µM).
As to `CC(C)CC1NC(=O)C(C(=O)NCCC(=O)N[C@@H](C(=O)N[C@@H]2C(=O)N3[C@@H]2SC(C)(C)[C@@H]3C(=O)O)c2ccccc2)=C1O` (some centres not stated), the MIC was determined as 0.78 µg/mL (≈ 1.3 µM).

For the next assay, the system named is Stenotrophomonas maltophilia. Nature of the assay: Antimicrobial activity against Stenotrophomonas maltophilia ATCC 700475 after 18 to 20 hrs by microbroth dilution method.
Conditions: not given
Type of assay: functional.
As to `CC1=C(C(=O)O)N2C(=O)[C@@H](NC(=O)[C@H](NC(=O)CCNC(=O)C3=C(O)C(CC(C)C)NC3=O)c3ccccc3)[C@H]2SC1` (some centres not stated), the MIC is over 200 µg/mL.
`CC(C)CC1NC(=O)C(C(=O)NCCC(=O)N[C@@H](C(=O)N[C@@H]2C(=O)N3[C@@H]2SC(C)(C)[C@@H]3C(=O)O)c2ccccc2)=C1O` (some centres not stated) gave an MIC of 50 µg/mL (≈ 83.1 µM).

In the next assay the test system is Pseudomonas aeruginosa. Nature of the assay: Antimicrobial activity against Pseudomonas aeruginosa PAO1 after 18 to 20 hrs by microbroth dilution method. Type of assay: functional.
Conditions: not given
`CC1=C(C(=O)O)N2C(=O)[C@@H](NC(=O)[C@H](NC(=O)CCNC(=O)C3=C(O)C(CC(C)C)NC3=O)c3ccccc3)[C@H]2SC1` (some centres not stated) gave a minimal inhibitory concentration (MIC) of over 200 µg/mL.
Still for that read-out and setting: the value for `CC(C)CC1NC(=O)C(C(=O)NCCC(=O)N[C@@H](C(=O)N[C@@H]2C(=O)N3[C@@H]2SC(C)(C)[C@@H]3C(=O)O)c2ccccc2)=C1O` (some centres not stated) was 25 µg/mL (≈ 41.6 µM).
